Like-named read-outs stand apart in the source and are kept apart here.
Legend:
[1] = test system: A549 cells; assay: cell viability MTT assay, A549; type: cell-based, human; conditions: mean ± SD of two experiments, read-out: A549 antiproliferative activity IC50
Procedure: The antiproliferative activity of all compounds was evaluated in (i) DU145, an androgen-independent prostate cancer cell line; (ii) HeLa, a cervical cancer cell line; and (iii) A549, a lung adenocarcinoma cell line (Table 1). […] Undoubtedly, this preliminary cytotoxicity data will need further characterization, also in relation to the in vitro activity of these compounds.
Human cancer cell lines A549 (lung adenocarcinoma, ATCC CCL-185), DU-145 (androgen-independent prostate cancer, ATCC HTB-81), and HeLa (cervical carcinoma, ATCC CCL-2) were obtained from ATCC. Cells were routinely grown in minimal essential medium containing Eagle’s salts and L-glutamine supplemented with 10% heat-inactivated FBS in a humidified atmosphere of 5% CO2 at 37 °C. To assess the antiproliferative activity of the compounds, cells were seeded at a density of 2500 cells/well (HeLa) or 5000 cells/well (A549, DU-145) in 96-well plates, and cell viability was measured using the MTT assay as described previously.[39] Values are reported as the mean ± SD of two independent experiments.

[2] = in vivo pharmacokinetics in mice; conditions: mouse
Procedure: Finally, on the basis of the overall results and drug-like profile, 3f was selected as our lead for in vivo pharmacokinetics studies, as a preparatory characterization for future analyses of in vivo drug efficacy in animal models of cancer. We tested two different routes of administration: (i) intravenous (iv) injection at a concentration of 3 mg/kg (n = 3 for each time point) and oral (po) treatment at a dose of 10 mg/kg (n = 3 for each time point). Despite the relatively low thermodynamic solubility of 3f (30 μM in PBS), the compound reached the target concentration in the formulation used for the in vivo experiments. The mean plasma concentration versus time profile of 3f is shown in Figure 5, and the corresponding pharmacokinetic parameters are summarized in the inserted table.
Male C57B6/J male mice, 8 weeks old, 25-30 g were used (Charles River). All procedures were performed in accordance with the Ethical Guidelines of European Communities Council (Directive 2010/63/EU of 22 September 2010) and accepted by the Italian Ministry of Health. All efforts were made to minimize animal suffering and to use the minimal number of animals required to produce reliable results, according to the “3Rs concept”. Animals were group-housed in ventilated cages (n=5 mice per cage) and had free access to food and water. They were maintained under a 12-hour light/dark cycle (lights on at 8:00 am) at controlled temperature (21°C ± 1°C) and relative humi dity […]
4. Pharm acok inet ic studies
Compound 3f was administered orally (P.O.) and intravenously (I.V.) to C57B6/J male mice at 10 and 3 mg/Kg dose. Vehicle was: PEG400/Tween 80/Saline solution at 10/10/80 % in volume respectively. 3f was first dissolved in 100% PEG, then diluted to the final target concentration in this vehicle. The target concentration of 3f in the dosing solution was checked and confirmed by LC-MS .
The dosing solutions were diluted differently in the vehicle. The different dilutions were further diluted 4-fold with CH3CN prior to analysis. A reference standard was spiked in the vehicle to prepare a calibration curve over a 0.1 -10µM range. The ca librators were also diluted 4 -fold with CH3CN as for the dosing solution dilutions. The dosing solutions and calibrators were analys ed under the sam e conditions as for the plasma samples described below.
Three animals per dose were treated. Blood samples at 0, 15, 30, 60, 120, 240, and 480 minutes after administration were collected for PO arm. Blood samples at 0, 5, 15, 30, 60, 120 and 240 minutes after administration were collected for IV arm. Plasma was separated from blood by centrifugation for 15 minutes at 3500 rpm a 4°C, collected in a eppendorf tube and frozen ( -80°C). Brain samples were homogenized in Phosphate buffered saline a nd were then split in two aliquots kept at -80 °C until analysis. An aliquot was used for compound brain level evaluations, following the same procedure described below for plasma samples. The second aliquot was kept for protein content evaluation by bicinchoninic acid assay (BC A). Control animals treated with vehicle only w ere also included in the experimental protocol.
Plasma samples were centrifuged at 21.100g for 15min. at 4°C. A 50µl aliquot was transferred into a 96-Deep Well plate and 150µl of extraction so lution was added. The extraction solution was consisting of cold CH3CN spiked with 200n M of internal standard. The plate was centrifuged at 3270g for 15min. at 4°C. 80µl of supernatant was then transferred into a 96 -Deep Well plate and 80µl of H2O was added. A reference standard of the compound was spiked in naïve mouse plasma to prepare a calibration curve over a 1nM – 10µM range. Three quality control samples were prepared by spiking the compound in blank mouse plasma to the final concentrations of 20, 200 and 2000nM.
Calibrators and quality controls were extracted wit h the same e xtraction solution used for the plasma samples. The samples w ere analysed on a W aters ACQUITY UPLC/MS TQD system (Water s Inc. […]

[3] = biological target: T1, human topoIIα (Homo sapiens, UniProt P11388); assay: topoII decatenation assay (Inspiralis); type: biochemical
T1 construct: purchased Inspiralis
T1 sequence (P11388 whole entry): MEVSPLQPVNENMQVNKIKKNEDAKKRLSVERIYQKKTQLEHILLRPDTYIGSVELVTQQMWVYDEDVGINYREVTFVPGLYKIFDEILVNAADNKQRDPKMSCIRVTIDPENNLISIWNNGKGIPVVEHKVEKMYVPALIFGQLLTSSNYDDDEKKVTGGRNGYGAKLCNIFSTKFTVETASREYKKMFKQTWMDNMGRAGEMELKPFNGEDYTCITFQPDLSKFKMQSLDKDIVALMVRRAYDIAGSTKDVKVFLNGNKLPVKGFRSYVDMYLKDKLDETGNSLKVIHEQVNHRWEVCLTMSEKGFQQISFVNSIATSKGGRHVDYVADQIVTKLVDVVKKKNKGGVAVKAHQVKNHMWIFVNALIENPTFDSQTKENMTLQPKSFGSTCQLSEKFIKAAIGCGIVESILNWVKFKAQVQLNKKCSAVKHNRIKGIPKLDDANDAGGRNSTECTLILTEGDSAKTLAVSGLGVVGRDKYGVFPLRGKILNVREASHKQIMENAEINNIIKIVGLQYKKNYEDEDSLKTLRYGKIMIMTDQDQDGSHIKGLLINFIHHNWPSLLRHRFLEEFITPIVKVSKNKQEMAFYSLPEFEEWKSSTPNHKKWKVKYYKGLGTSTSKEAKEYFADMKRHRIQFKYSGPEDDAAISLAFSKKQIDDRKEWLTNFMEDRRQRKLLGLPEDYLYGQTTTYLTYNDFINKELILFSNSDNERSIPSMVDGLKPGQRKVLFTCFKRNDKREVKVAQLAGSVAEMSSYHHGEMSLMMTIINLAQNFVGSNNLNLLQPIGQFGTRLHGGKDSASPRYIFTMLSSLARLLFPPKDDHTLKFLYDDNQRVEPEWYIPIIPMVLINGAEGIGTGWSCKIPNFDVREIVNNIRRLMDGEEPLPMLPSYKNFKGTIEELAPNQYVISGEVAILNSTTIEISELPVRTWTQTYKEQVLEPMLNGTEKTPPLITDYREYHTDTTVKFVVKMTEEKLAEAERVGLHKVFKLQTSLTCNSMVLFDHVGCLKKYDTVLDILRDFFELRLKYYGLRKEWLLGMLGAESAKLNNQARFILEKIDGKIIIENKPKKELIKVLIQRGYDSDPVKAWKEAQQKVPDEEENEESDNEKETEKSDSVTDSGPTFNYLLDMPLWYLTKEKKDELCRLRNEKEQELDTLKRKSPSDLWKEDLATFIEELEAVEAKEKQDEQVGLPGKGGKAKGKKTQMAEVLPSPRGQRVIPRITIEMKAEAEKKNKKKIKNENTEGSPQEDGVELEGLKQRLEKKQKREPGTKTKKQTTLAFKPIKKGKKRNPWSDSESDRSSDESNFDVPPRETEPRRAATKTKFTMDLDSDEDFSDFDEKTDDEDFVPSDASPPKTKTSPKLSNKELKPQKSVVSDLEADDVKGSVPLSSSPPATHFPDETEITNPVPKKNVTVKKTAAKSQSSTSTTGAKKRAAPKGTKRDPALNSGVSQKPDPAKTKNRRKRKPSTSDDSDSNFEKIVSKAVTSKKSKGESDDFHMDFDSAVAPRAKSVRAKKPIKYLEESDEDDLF
Procedure: We measured the inhibitor activity of our new compounds against human topoIIα, using a topoII decatenation assay (Table 1).
The activity of topoIIα was measured using a decatenation assay (Inspiralis) following the manufacturer’s instructions. Compounds were dissolved in DMSO and used at a concentration ranging from 200 to 1 μM. Final DMSO concentration in the assay was ≤1%. Reaction mixtures were incubated for 30 min at 37 °C and terminated with STEB buffer (40% (w/v) sucrose, 100 mM Tris-HCl, pH 8, 1 mM EDTA, 0.5 mg/mL bromophenol blue). Reaction products were resolved by electrophoresis in 1% agarose gels containing SYBR Safe DNA stain (Invitrogen), scanned, and quantified using the ChemiDoc system (BioRad). IC50 values were obtained with GraphPad Prism software (version 5.03) using the band intensities of the dose–response gels. Values are reported as the mean ± SD of two independent experiments.

`O=C(Nc1cccc(OC(F)(F)F)c1)c1c(O)n(-c2ccccc2)c(=S)n(-c2ccccc2)c1=O` [3f, 6-Hydroxy-4-oxo-1,3-diphenyl-2-thioxo-N-(3-(trifluoromethoxy)phenyl)-1,2,3,4-tetrahydropyrimidine-5-carboxamide] gave an IC50 ([1]; A549 lung adenocarcinoma cells) of 3.1 ± 0.1 µM, an IC50 ([1]; Homo sapiens, A549, A549 lung adenocarcinoma cells) of less than 5 µM and a concentration at 2 h ([2]; male, C57B6/J, plasma, iv 3 mg/kg, 2 h, read-out: plasma concentration after 2 h) of 551 ng/mL. It also gave a bioavailability ([2]; male, C57B6/J, plasma, po 10 mg/kg vs iv 3 mg/kg, based on AUC from t = 0 to 240 min, read-out: bioavailability F) of 8%, an AUCplasma ([2]; iv 3 mg/kg) of 295528 ng·min/mL and a CL ([2]; iv 3 mg/kg) of 4 mL/min/kg. The Clp ([2]; iv 3 mg/kg) was 0.004 L min^–1 kg^–1, the Tmax ([2]; iv 3 mg/kg) was 5 min and the Vd ([2]; iv 3 mg/kg) was 3 L/kg. For the same molecule, the “t½ (elimination phase)” value ([2]; iv 3 mg/kg) was 30 min, the “tolerability during PK studies” value ([2]; iv 3 mg/kg or po 10 mg/kg) was “well tolerated” and the treatment-related clinical signs ([2]; iv 3 mg/kg or po 10 mg/kg) was “no treatment-related clinical signs were observed”. For the same molecule, the Cmax ([2]; iv 3 mg/kg, plasma) was 7366 ng/mL, the AUCplasma ([2]; po 10 mg/kg) was 77385 ng·min/mL and the Tmax ([2]; po 10 mg/kg) was 120 min. For the same molecule, the Vd ([2]; po 10 mg/kg) was 18 L/kg, the “plasma concentration reached at 1 h and stably maintained for at least 6 h” value ([2]; po 10 mg/kg) was “about 400 ng/mL” and the “time of maximum concentration” value ([2]; po 10 mg/kg) was “approximately 2 h”. The “t½ (elimination phase)” value ([2]; po 10 mg/kg) was 190 min, the Cmax ([2]; po 10 mg/kg, plasma) was 428 ng/mL and the IC50 ([3]; human topoIIα decatenation assay, mean ± SD of two independent experiments, read-out: IC50) was 7.3 ± 1.5 µM. For the same molecule, the “fold increased activity compared to ARN16267” value ([3]; topoIIα decatenation IC50 versus ARN16267) was 2 fold.
